# Data from patent US20110166135A1, “AROMATIC NITROGEN-CONTAINING 6-MEMBERED RING COMPOUNDS AND THEIR USE” (priority 2008, published 2011).
# System: not given
# Experiment: not given
# Details: not given
row,melting point [°C],SMILES
1,199 to 201,"COc1ccc(-c2cc(N3CCC(O)C3)nc(/C=C/c3nc(N(C)C)c4ccccc4n3)n2)cc1OC (stereo not shown) [Example 1.007, 1-(6-(3,4-dimethoxyphenyl)-2-{(E)-2-[4-(dimethylamino)quinazolin-2-yl]vinyl}pyrimidin-4-yl)pyrrolidin-3-ol]"
2,103 to 108,COc1ccc(-c2cc(N3CCn4ccnc4C3)nc(/C=C/c3nc(N(C)C)c4ccccc4n3)n2)cc1OC [Example 1.008]
3,177 to 180,COc1ccc(-c2cc(N3CCN(C)CC3)nc(/C=C/c3nc(-n4ccnc4)c4ccccc4n3)n2)cc1OC [Example 1.010]
4,126 to 131,"COc1ccc(-c2cc(N3CCC(NC(=O)CN(C)C)C3)nc(/C=C/c3nc(N(C)C)c4ccccc4n3)n2)cc1OC (stereo not shown) [Example 1.104, N^1-[1-(6-(3,4-dimethoxyphenyl)-2-{(E)-2-[4-(dimethylamino)quinazolin-2-yl]vinyl}pyrimidin-4-yl)pyrrolidin-3-yl]-N^2,N^2-dimethylglycine amide]"

# Biological target: T1, PDE10 (PDE10A) (Bos taurus, UniProt A0A3Q1MHJ4)
# T1 construct: isolated and prepared from bovine corpus striatum; from tissue; host or cells: bovine corpus striatum
# T1 sequence (A0A3Q1MHJ4 1-1068): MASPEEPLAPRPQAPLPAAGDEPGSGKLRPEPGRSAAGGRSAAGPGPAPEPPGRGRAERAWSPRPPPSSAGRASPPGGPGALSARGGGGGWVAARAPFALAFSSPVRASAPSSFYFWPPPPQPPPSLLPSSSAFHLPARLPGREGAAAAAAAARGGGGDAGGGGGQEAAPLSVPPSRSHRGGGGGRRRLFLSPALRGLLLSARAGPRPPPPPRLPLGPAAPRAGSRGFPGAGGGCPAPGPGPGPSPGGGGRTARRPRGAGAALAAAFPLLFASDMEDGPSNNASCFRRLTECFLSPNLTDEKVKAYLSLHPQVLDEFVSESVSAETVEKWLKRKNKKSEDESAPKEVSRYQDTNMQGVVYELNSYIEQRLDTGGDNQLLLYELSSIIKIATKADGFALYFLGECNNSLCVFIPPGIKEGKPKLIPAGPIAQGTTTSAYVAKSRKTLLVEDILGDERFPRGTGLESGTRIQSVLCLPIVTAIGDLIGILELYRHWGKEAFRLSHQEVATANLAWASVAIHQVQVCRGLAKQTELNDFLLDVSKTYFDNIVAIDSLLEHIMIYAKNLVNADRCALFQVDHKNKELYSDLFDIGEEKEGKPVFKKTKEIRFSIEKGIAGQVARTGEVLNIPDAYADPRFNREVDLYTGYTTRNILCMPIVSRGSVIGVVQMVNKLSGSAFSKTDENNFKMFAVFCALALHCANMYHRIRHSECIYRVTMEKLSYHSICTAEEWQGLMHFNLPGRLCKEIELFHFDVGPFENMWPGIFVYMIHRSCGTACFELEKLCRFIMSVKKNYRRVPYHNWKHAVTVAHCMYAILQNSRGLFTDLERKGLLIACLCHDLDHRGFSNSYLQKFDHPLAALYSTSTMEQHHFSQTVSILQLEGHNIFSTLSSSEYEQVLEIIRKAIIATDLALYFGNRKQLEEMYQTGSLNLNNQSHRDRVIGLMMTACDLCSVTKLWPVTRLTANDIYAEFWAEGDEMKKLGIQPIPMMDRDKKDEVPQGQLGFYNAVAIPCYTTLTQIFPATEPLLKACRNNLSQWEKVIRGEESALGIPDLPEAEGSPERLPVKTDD
# Experiment: Measurement of PDE10 inhibitory activity (radiolabeled nucleotide PDE assay, Method-A or Method-B)
# Assay type: biochemical
# Details: Method-A: [3H]-cAMP substrate, 37° C., 30 minutes, enzyme from bovine corpus striatum
# Experimental: (1) The enzyme PDE10 (PDE10A) was isolated and prepared from bovine corpus striatum, according to the methods described in references Fujishige et al., Eur. J. Biochem., vol. 266, pp. 1118-1127, 1999. The enzyme solution obtained was used for a PDE assay.
# The PDE assay was performed according to the method described in Kotera et al. (Kotera et al., Biochem. Pharmacol., vol. 60, pp. 1333-1341, 2000), by the radiolabeled nucleotide method.
# Specifically, the measurements of the inhibitory activities were carried out in one of the following methods.
# (Method-A) The enzymatic reaction was carried out in 500 μl of assay buffer [50 mM Tris-HCl, pH8.0, 5 mM MgCl2, 4 mM 2-mercaptoethanol, 0.33 mg/ml bovine serum albumin] containing as a substrate about 4.8 nM [^3H]-cAMP+0.25 μM unlabeled cAMP (available from Amersham Biosciences) or about 9.6 nM [^3H]-cAMP.
# The reaction was carried out for 30 minutes while keeping the temperature at 37° C. It was stopped by boiling the reaction mixture for 1.5 minutes, and further added thereto was 100 μl of snake venom (Crotalus atrox snake venom 1 mg/ml) and the temperature was kept at 37° C. for 30 minutes. Then 500 μl of methanol was added, and the reaction mixture was applied to a Dowex column (1×8 200-400). Subsequently, scintillation cocktail was added to each aliquot of the eluant, and the radioactivity was measured in a scintillation counter. Thus, PDE activity taking cAMP as a substrate (an activity to hydrolyze cAMP) was measured.
# In the measurements of the inhibitory activities of compounds, a test compound was added to the above-mentioned reaction mixture, in various concentrations, and PDE activity was measured in the presence or absence of the test compound. From the measurements, its PDE10 (PDE10A) inhibitory activity was determined.
# (Method-B) The test compounds were dissolved in dimethyl sulfoxide (DMSO). 2 μL of the compound solution was added to 96 well plate, and the reaction mixture (20 μL of PDE enzyme solution in 50 mM Tris-HCl, pH 8.0, 40 μL of the assay buffer (50 mM Tris-HCl, pH 8.0, 2 mM MgCl2, 0.07% 2-mercaptoethanol, and 0.825 mg/mL bovine serum albumin), and 20 μL of 1 mg/mL snake venom) was added to the 96 well plate. The enzyme reaction was started by adding and mixing with substrate solution of 20 μL containing approximate 35 nM [5′,8-3H]cAMP in 50 mM Tris-HCl, pH 8.0. The final concentration of cAMP in the reaction mixtures was 7 nM. The reaction mixtures were incubated at room temperature for 90 min under dark conditions. After incubation, the reaction was stopped by adding 100 μL of methanol and resultant solutions were applied to filter plate containing Dowex (1×8 200-400) and centrifuged. 50 μL of the eluate together with wash eluate with additional 100 μL methanol was collected in another plate and the radioactivity was measured with 250 μL of scintillant.
# (2) The compounds in the Examples below were tested for PDE inhibition using (Method-A) or (Method-B) described above.
row,IC50 [nM],SMILES
1,0.44,COc1ccc(-c2cc(N3CCn4ccnc4C3)nc(/C=C/c3nc(N(C)C)c4ccccc4n3)n2)cc1OC [Example 1.008]
2,46,COc1ccc(-c2cc(N3CCN(C)CC3)nc(/C=C/c3nc(-n4ccnc4)c4ccccc4n3)n2)cc1OC [Example 1.010]
3,4.2,COc1ccc(-c2cc(N3CCN(C)C3=O)nc(/C=C/c3nc(N4CCCC4)c4ccccc4n3)n2)cc1OC [Example 1.013]
4,9.7,COc1ccc(-c2cc(N3CCCC3)nc(/C=C/c3nc(C)nc4c3CCN4C)n2)cc1OC [Example 1.055]
5,29,COc1ccc(-c2cc(N3CCCC3)nc(/C=C/c3nc(C)cnc3C)n2)cc1OC [Example 1.057]
6,31,Cc1cnc(/C=C/c2nc(-c3ccccn3)cc(N3CCCC3)n2)nc1N(C)C [Example 1.071]
7,35,Cc1nc(OCc2cc(-c3ccco3)nc(N3CCCC3)n2)nc(N(C)C)c1C [Example 3.017]
8,38,COc1cc(OC)nc(OCc2cc(-c3ccc(OC)c(OC)c3)nc(N3CCCC3)n2)n1 [Example 3.029]
9,24,CN(C)c1nc(OCc2cc(N3CCCC3)nc(-c3cccnc3)n2)nc2ccccc12 [Example 3.034]

# Same assay, conditions: Method-B: 96 well plate, 7 nM cAMP, room temperature, 90 min, enzyme from bovine corpus striatum
row,IC50 [nM],SMILES
1,0.6,CN(C)c1nc(/C=C/c2nc(C(=O)NN3CCCCC3)cc(N3CCCC3)n2)nc2ccccc12 [Example 1.159]
2,0.62,Cc1nc2ccccc2nc1/C=C/c1nc(C(=O)NC2CCOCC2)cc(N2CCCC2)n1 [Example 1.208]
3,0.76,Cc1nc2ccccc2nc1/C=C/c1nc(C(=O)N(C2CCOCC2)C2CC2)cc(N2CCCC2)n1 [Example 1.211]
4,0.49,Cc1nc2ccccc2nc1/C=C/c1nc(C(=O)NN2CCCCC2)cc(N2CCCC2)n1 [Example 1.220]
5,20,Cc1nc2ccccc2nc1/C=C/c1nc(C(=O)N(C)C2CCOCC2)cc(N2CCC(O)C2)n1 (stereo not shown) [Example 1.226]
6,1.4,CN(C(=O)c1cc(N2CCCC2)nc(/C=C/c2nc3ccccc3nc2C2CC2)n1)C1CCOCC1 [Example 1.253]
7,2.5,Cc1cc2ccccc2nc1/C=C/c1nc(C(=O)NC2CCOCC2)cc(N2CCCC2)n1 [Example 1.260]
8,0.7,Cc1nc2ccccc2nc1/C=C/c1nc(CNC2CCOCC2)cc(N2CCCC2)n1 [Example 1.268]
9,0.89,CN(C)c1nc(/C=C/c2nc(OC3CCCCC3)cc(N3CCCC3)n2)nc2ccccc12 [Example 2.035]
10,0.84,CC(C)=NOc1cc(N2CCCC2)nc(/C=C/c2nc(N(C)C)c3ccccc3n2)n1 [Example 2.039]
11,0.21,CN(C)c1nc(/C=C/c2nc(OC[C@@H]3CCC(=O)N3)cc(N3CCCC3)n2)nc2ccccc12 [Example 2.048]
12,0.64,Cc1nc(/C=C/c2nc(OC3CCOCC3)cc(N3CCCC3)n2)nc(N(C)C)c1C [Example 2.053]
13,0.86,Cc1nc2ccccc2nc1/C=C/c1cc(C(=O)NC2CCOCC2)nc(N2CCCC2)n1 [Example 4.001]
14,3.3,Cc1nc2ccccc2nc1CCc1nc(C(=O)NC[C@@H]2CCCO2)cc(N2CCCC2)n1 [Example 5.006]
15,2.3,CCOc1nc2ccccc2nc1CCc1nc(C(=O)NC2CCOCC2)cc(N2CCCC2)n1 [Example 5.012]
